Values quoted from earlier work as cited in patent US7435725B2, “Oral compositions and methods for prevention, reduction and treatment of radiation injury” (The Quigly Corporation, priority 2001, dated 2008).

What was measured:
[1] = system: Salmonella Typhimurium TA98 and TA 1538; conditions: Trp-P-2 (3-amino-1-methyl-5H-pyrido(4,3-b)indole)

SMILES | reduction of mutation rate induced by Trp-P-2 [1] | reduction of mutations due to γ-radiation (E. coli B/r WP2 trp-)
[Ge+4].[O-2].[O-2] [Germanium oxide] | 40-67 folds | –
O=C(O)C[CH2][Ge](=[O])[O][Ge](=[O])[CH2]CC(=O)O [Ge-132] | – | twenty-fold
